# Measurements from patent US6316448A, “Pyrazolo[3,4-d][1,2,3] troazines having anticonvulsant activity and process for their preparation” (priority 1999, dated 2001).
# What was measured:
# [1] = Anticonvulsive action, s.c. pentetrazol (PTZ), mouse i.p.; type: in vivo
# From the text: (§1) ^3) Mouse i.p.: MES = maximal electroshock, PTZ = s.c. pentetrazol
# (§2) ^5) in % of the protected animals
# [2] = Anticonvulsive action, maximal electroshock (MES), mouse i.p.; type: in vivo
# From the text: as §1, §2
# in vivo = details: rat, po
# From the text: (§3) Analogous results were obtained for the oral action.
# [3] = Maximal electroshock, rat p.o.; type: in vivo; details: po
# Experimental: The compounds according to the invention were tested in vivo for their anticonvulsive action (Table 1) in mice (i.p. administration) or rats (p.o. administration) according to the internationally customary standard (Pharmac. Weekblad, Sc. Ed. 14, 132 (1992) and Antiepileptic Drugs, Third. Ed., Raven Press, New York 1989).
# as §3
# [4] = Octanol/water partition coefficient; type: physicochemical
# From the text: ^2) Octanol/water partition coefficient, n = not measured
# [5] = ip, mouse i.p., s.c. pentetrazol, 100 mg/kg, read-out: Action, % of the protected animals (PTZ)
# [6] = ip, mouse i.p., MES, 100 mg/kg, read-out: Action, % of the protected animals (MES)
# [7] = ip, mouse i.p., MES, read-out: Action, % of the protected animals (MES)
# [8] = ip, mouse i.p., s.c. pentetrazol, read-out: Action, % of the protected animals (PTZ)
Molecule,logP [4],"responders at 100 mg/kg [1, 5] [%]","responders at 100 mg/kg [2, 6] [%]","responders at 300 mg/kg [1, 8] [%]",other results
"6-(2-chloro-4-fluorobenzyl)-5-methyl-3,6-dihydropyrazolo[3,4-d][1,2,3]triazin-4-one [Compound 11]",–,–,–,–,"Action, % of the protected animals (PTZ) ([1]; mouse i.p., s.c. pentetrazol, 100 mg/kg): 33%; Action, % of the protected animals (MES) ([2]; mouse i.p., MES, 100 mg/kg): 66%"
"NC(=O)N1c2ccccc2C=Cc2ccccc21 [Carbamazepine, reference compound]",–,0,100,–,–
"O=c1[nH]nnc2nn(Cc3ccccc3F)cc12 [Compound 1, 6-(2-fluorobenzyl)-3,6-dihydropyrazolo[3,4-d][1,2,3]triazin-4-one]",–,66,–,–,"responders at 30 mg/kg [2, 7]: 100%"
"O=c1[nH]nnc2nn(Cc3ccccc3Cl)cc12 [Compound 2, 6-(2-chlorobenzyl)-3,6-dihydropyrazolo[3,4-d][1,2,3]triazin-4-one]",0.82,–,–,–,"responders at 30 mg/kg ([1]; ip, mouse i.p., s.c. pentetrazol, 30 mg/kg, read-out: Action, % of the protected animals (PTZ)): 60%; responders at 30 mg/kg [2, 7]: 100%; TD50 (in vivo): > 250 mg/kg; ED50 [3]: 3 mg/kg"
"O=c1[nH]nnc2nn(Cc3ccccc3C(F)(F)F)cc12 [Compound 3, 6-(2-trifluoromethylbenzyl)-3,6-dihydropyrazolo[3,4-d][1,2,3]triazin-4-one]",1.74,100,–,–,"responders at 30 mg/kg [2, 7]: 33%"
"Cc1c2c(=O)[nH]nnc2nn1Cc1ccccc1Cl [Compound 10, 6-(2-chlorobenzyl)-5-methyl-3,6dihydropyrazolo[3,4-d][1,2,3]triazin-4one]",–,–,66,0,–
"O=c1[nH]nnc2nn(Cc3ccccc3)cc12 [Compound 12, 6-benzyl-3,6-dihydropyrazolo[3,4-d][1,2,3]triazin-4-one]",–,0,66,–,–
"CCCC(CCC)C(=O)O [Valproate, reference compound]",–,–,–,–,"responders at 100 mg/kg ([1]; Mus musculus, ip, read-out: Action, % of the protected animals (PTZ)): 30%; responders at 100 mg/kg ([2]; Mus musculus, ip, read-out: Action, % of the protected animals (MES)): 0%"

# Second part, led by results:
logP [4],Molecule,"responders at 100 mg/kg [1, 5] [%]","responders at 100 mg/kg [2, 6] [%]","responders at 300 mg/kg [1, 8] [%]",other results
0.74,"Cc1ccccc1Cn1cc2c(=O)[nH]nnc2n1 [Compound 4, 6-(2-methylbenzyl)-3,6-dihydropyrazolo[3,4-d][1,2,3]triazin-4-one]",–,–,100,"responders at 30 mg/kg [2, 7]: 100%"
1.83,"O=c1[nH]nnc2nn(Cc3cccc(Cl)c3)cc12 [Compound 5, 6-(3-chlorobenzyl)-3,6-dihydropyrazolo[3,4-d][1,2,3]triazin-4-one]",–,100,0,–
2.02,"O=c1[nH]nnc2nn(Cc3cccc(C(F)(F)F)c3)cc12 [Compound 6, 6-(3-trifluoromethylbenzyl)-3,6-dihydropyrazolo[3,4-d][1,2,3]triazin-4-one]",20,66,–,–
1.28,"O=c1[nH]nnc2nn(Cc3ccc(F)cc3)cc12 [Compound 7, 6-(4-fluorobenzyl)-3,6-dihydropyrazolo[3,4-d][1,2,3]triazin-4-one]",–,66,100,–
1.88,"O=c1[nH]nnc2nn(Cc3ccc(Cl)cc3)cc12 [Compound 8, 6-(4-chlorobenzyl)-3,6-dihydropyrazolo[3,4-d][1,2,3]triazin-4-one]",–,–,100,"responders at 300 mg/kg ([2]; ip, mouse i.p., MES, 300 mg/kg, read-out: Action, % of the protected animals (MES)): 100%"
1.38,"O=c1[nH]nnc2nn(Cc3c(F)cccc3Cl)cc12 [Compound 9, 6-(2-chloro-6-fluorobenzyl)-3,6-dihydropyrazolo[3,4-d][1,2,3]triazin-4one]",100,–,–,"responders at 10 mg/kg ([2]; ip, mouse i.p., MES, 10 mg/kg, read-out: Action, % of the protected animals (MES)): 20%"
